Each block holds one compound with its values, some of them ahead of it. Active and inactive are the calls of the source.
Columns and labels:
Caspase-3 = target: T1, Caspase-3 (Homo sapiens, UniProt P42574); format: functional;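 also: Dose-response selectivity test against caspase-3 for candidate inhibitors of sentrin-specific proteases (SENPs)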
T1 sequence (P42574 whole entry): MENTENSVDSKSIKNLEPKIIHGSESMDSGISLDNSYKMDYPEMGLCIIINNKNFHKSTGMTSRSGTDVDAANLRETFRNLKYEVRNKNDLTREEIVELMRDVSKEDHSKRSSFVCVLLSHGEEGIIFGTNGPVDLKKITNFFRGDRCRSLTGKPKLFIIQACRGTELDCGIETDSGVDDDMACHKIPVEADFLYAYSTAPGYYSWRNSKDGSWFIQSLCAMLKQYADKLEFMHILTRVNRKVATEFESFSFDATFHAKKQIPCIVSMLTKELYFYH

[1] = target: T2, Sentrin-specific protease 7 (Homo sapiens, UniProt Q9BQF6); format: functional;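 also: Luminescence-based dose-response confirmation of ultra-high-throughput screening hits, measuring inhibition of SENP7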
T2 sequence (Q9BQF6 whole entry): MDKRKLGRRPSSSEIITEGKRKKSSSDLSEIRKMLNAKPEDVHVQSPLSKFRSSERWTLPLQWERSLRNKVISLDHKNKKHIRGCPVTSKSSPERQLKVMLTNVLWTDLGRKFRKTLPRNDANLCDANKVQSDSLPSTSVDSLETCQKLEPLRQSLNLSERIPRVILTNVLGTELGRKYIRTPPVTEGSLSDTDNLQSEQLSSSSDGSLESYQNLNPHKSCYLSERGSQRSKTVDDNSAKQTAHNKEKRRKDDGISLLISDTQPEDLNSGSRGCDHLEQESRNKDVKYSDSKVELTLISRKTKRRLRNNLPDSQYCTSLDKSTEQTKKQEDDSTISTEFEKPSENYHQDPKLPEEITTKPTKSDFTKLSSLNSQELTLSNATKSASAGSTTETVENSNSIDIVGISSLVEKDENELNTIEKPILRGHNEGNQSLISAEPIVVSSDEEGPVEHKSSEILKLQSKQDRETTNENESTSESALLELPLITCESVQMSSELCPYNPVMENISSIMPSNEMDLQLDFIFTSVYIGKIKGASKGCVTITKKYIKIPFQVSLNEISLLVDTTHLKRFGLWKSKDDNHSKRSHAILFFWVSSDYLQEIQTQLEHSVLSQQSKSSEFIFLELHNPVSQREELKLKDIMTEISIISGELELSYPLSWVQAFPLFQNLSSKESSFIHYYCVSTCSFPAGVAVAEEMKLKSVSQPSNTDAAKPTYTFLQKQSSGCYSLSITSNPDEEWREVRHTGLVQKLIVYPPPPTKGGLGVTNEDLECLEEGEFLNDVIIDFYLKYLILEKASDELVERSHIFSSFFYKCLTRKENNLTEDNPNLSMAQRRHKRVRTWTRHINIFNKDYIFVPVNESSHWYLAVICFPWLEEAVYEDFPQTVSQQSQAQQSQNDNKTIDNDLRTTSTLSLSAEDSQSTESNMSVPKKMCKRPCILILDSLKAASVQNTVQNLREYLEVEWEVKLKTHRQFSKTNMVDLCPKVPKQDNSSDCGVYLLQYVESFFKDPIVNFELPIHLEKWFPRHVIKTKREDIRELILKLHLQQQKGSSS

[2] = target: T3, Sentrin-specific protease 6 (Homo sapiens, UniProt Q9GZR1); format: functional;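 also: Luminescence-based dose-response confirmatory assay of SENP6 inhibition, following up an ultra-high-throughput screen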
T3 sequence (Q9GZR1 whole entry): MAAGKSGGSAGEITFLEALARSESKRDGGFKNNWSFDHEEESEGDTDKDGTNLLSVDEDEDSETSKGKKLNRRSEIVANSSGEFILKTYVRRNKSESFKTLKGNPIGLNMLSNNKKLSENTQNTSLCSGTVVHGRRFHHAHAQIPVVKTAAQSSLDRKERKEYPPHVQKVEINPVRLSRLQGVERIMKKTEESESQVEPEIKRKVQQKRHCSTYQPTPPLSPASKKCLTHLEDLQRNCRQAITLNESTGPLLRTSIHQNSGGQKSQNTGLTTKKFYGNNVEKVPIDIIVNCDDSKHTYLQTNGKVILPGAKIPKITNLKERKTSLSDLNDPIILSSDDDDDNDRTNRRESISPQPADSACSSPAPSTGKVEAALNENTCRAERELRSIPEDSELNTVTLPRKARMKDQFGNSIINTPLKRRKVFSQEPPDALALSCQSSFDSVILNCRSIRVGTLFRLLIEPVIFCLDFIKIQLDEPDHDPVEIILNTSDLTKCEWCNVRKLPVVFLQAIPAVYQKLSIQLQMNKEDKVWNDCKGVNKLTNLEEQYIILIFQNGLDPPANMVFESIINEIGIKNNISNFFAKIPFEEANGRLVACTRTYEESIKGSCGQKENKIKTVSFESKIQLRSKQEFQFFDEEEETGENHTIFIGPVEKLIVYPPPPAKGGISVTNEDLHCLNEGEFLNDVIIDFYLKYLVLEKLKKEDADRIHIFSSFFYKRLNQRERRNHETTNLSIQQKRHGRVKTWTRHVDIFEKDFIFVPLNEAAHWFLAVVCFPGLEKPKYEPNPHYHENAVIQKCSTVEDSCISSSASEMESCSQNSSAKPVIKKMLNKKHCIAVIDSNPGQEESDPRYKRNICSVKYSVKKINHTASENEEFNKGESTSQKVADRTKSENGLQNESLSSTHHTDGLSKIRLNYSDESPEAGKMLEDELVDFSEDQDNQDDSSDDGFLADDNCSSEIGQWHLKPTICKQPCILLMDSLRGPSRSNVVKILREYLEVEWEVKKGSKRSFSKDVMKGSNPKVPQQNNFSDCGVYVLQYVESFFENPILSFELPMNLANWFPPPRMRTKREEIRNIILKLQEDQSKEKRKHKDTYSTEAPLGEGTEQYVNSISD

[3] = target: T4, Sentrin-specific protease 8 (Homo sapiens, UniProt Q96LD8); format: functional
T4 sequence (Q96LD8 whole entry): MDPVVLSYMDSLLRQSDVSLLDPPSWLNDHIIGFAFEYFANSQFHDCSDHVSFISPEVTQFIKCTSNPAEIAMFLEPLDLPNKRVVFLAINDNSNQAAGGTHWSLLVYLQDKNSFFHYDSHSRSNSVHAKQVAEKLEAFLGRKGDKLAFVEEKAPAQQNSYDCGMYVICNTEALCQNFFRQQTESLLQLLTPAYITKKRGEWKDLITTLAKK

[4] = target: T4, Sentrin-specific protease 8; format: functional; remark: listed apart in the source
[5] = target: T4, Sentrin-specific protease 8; format: functional; remark: listed apart in the source
Caspase-6 = target: T5, Caspase-6 (Homo sapiens, UniProt P55212); assay: human caspase-6 inhibitors, dose response, biochemical, VEID-R110 fluorescence, cherry-pick (AID 720632)
T5 sequence (P55212 whole entry): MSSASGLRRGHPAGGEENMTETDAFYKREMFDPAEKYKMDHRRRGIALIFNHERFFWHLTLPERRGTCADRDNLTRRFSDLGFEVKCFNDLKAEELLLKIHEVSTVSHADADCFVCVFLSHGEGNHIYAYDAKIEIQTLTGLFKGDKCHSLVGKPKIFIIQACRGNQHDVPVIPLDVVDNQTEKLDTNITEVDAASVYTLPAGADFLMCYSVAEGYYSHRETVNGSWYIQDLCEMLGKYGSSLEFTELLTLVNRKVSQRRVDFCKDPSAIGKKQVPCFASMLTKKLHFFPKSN

[6] = inhibitors of intracellular T. cruzi replication, confirmation, NIH3T3 host cells, beta-gal luminescence (AID 2044); format: functional, cell-based;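 also: intracellular parasites grown in NIH/3T3 mouse fibroblasts as host cells; luminescent beta-galactosidase reporter signal from transgenic T. cruzi replicating inside host cells; inhibitors lower the luminescence signal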
[7] = cytotoxicity toward NIH3T3 fibroblasts, dose response, counter-screen, cell-based, ATP luminescence, mouse fibroblasts (AID 2010); format: functional;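 also: cells exposed to compound for about 90 hours before reading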
[8] = target: T6, Probable nicotinate-nucleotide adenylyltransferase (Staphylococcus aureus (strain N315), UniProt P65502); format: functional, Staphylococcus aureus subsp. aureus N315;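 as to IC50 Mean: confirmatory dose-response retesting of NadD inhibitor hits first found in an ultra-high-throughput screen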
[9] = target: T6, Probable nicotinate-nucleotide adenylyltransferase; format: functional, Staphylococcus aureus subsp. aureus N315; conditions: read-out: IC50_Mean
[10] = target: T7, Sentrin-specific protease 1 (Homo sapiens, UniProt Q9P0U3); assay: potency of human SENP1 inhibitors, dose response, biochemical, kinetic FRET (AID 651697); format: functional; conditions: read-out: IC50_Mean
T7 sequence (Q9P0U3 whole entry): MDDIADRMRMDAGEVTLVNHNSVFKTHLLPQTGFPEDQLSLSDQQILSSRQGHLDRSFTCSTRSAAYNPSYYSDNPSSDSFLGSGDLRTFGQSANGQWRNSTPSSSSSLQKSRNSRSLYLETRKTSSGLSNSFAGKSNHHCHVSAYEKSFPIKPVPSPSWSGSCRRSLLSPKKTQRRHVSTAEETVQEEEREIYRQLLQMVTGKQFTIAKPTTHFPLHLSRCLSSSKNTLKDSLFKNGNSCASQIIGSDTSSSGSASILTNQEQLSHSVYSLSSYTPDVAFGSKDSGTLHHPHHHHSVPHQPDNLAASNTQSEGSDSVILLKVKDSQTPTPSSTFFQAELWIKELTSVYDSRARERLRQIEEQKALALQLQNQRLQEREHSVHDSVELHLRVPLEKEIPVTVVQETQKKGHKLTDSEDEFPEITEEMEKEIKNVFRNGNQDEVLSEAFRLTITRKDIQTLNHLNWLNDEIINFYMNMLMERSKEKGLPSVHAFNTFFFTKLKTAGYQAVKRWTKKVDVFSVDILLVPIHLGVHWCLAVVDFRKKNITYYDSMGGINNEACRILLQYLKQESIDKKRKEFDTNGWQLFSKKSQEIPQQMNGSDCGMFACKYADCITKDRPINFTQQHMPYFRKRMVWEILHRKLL

[11] = target: T7, Sentrin-specific protease 1; assay: Dose response confirmation of small molecule inhibitors of the catalytic domain of the SUMO protease, SENP1 in a FRET assay.; format: functional; conditions: read-out: IC50_Mean
Albumin = Albumin (Bos taurus, UniProt P02769); assay: Counterscreen for inhibitors of T-cell receptor (TCR)-CD3 interaction: Fluorescence-based biochemical high throughput dose response assay to identify inhibitors of T-cell receptor (TCR)-CD3 interaction using a TAMRA-labeled BSA probe.; format: functional
Sequence of Albumin (P02769 whole entry, the tested form may be a part): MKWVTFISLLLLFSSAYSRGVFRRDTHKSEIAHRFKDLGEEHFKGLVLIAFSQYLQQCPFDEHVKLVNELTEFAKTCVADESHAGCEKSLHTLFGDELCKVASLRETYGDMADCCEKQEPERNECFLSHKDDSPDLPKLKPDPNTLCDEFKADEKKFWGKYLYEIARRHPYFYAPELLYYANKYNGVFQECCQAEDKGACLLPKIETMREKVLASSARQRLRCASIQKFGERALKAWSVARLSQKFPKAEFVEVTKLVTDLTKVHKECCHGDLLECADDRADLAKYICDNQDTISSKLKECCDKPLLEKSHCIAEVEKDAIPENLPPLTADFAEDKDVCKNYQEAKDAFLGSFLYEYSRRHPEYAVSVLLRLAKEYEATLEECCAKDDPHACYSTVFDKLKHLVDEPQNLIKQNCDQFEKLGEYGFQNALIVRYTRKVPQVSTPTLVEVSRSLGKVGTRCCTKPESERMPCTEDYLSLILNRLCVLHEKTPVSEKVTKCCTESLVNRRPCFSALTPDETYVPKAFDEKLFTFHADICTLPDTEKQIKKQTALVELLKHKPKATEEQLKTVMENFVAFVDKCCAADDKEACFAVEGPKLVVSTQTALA

[12] = target: T8, RNA-binding protein pos-1 (Caenorhabditis elegans, UniProt G5EF15); assay: inhibitors of POS-1/mex-3 RNA binding, dose response, biochemical, fluorescence polarization (AID 1964);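 also: purified POS-1 fused to maltose binding protein made in E. coli; potency of compounds blocking POS-1 binding to fluorescent RNA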
T8 sequence (G5EF15 whole entry): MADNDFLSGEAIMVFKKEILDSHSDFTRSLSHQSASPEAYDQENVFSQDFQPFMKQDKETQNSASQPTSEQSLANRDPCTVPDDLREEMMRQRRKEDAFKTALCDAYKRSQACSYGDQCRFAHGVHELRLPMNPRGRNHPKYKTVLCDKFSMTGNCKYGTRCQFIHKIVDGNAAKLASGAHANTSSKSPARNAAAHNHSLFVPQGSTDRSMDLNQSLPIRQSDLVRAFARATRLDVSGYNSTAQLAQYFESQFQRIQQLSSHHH

cells [13] = format: functional, cell-based
[14] = target: T9, Zinc finger protein mex-5 (Caenorhabditis elegans, UniProt Q9XUB2); assay: MEX-5/TCR-2 RNA interaction inhibitors, dose response, biochemical, C. elegans, fluorescence polarization (AID 1960)
T9 sequence (Q9XUB2 whole entry): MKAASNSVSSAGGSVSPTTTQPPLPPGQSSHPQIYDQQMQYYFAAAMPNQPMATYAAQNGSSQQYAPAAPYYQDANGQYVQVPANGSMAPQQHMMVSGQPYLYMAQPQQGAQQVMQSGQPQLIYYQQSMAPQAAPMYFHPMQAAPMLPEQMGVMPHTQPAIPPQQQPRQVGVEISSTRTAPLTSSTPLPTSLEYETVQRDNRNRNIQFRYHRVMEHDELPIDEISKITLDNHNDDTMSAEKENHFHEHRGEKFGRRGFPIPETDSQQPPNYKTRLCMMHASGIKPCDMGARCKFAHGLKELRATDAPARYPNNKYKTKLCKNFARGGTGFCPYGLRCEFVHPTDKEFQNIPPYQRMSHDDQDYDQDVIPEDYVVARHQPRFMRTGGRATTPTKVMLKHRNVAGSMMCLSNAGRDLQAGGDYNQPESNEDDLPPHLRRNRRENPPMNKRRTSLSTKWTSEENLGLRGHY

Large T antigen = Large T antigen (Simian virus 40, UniProt P03070); format: functional, Betapolyomavirus macacae;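 also: Confirmatory-stage PubChem screen for compounds that inhibit SV40 T antigen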
Sequence of Large T antigen (P03070 whole entry): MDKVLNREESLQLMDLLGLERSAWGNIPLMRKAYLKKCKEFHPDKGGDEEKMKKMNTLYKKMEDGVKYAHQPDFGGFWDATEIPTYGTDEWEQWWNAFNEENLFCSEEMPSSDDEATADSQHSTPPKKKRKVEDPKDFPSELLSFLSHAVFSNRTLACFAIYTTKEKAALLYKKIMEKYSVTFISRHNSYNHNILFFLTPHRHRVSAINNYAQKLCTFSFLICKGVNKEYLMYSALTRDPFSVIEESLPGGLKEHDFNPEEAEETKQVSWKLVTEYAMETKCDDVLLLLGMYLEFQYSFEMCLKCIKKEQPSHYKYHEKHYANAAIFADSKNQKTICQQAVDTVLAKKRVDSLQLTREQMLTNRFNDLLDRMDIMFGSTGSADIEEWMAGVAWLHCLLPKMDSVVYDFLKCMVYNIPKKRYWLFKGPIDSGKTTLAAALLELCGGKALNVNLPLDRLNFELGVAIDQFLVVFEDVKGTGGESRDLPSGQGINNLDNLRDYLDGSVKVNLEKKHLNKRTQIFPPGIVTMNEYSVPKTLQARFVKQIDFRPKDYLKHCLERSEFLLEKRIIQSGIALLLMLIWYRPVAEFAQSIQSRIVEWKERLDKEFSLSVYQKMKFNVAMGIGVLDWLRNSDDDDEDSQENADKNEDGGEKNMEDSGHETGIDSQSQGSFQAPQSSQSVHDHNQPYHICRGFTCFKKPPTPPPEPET

cells [15] = format: functional, cell-based; remark: listed apart in the source
[16] = target: FAD-linked sulfhydryl oxidase ALR (Homo sapiens, UniProt P55789); assay: inhibitors of human ALR sulfhydryl oxidase, dose response, biochemical, H2O2 detection, luminescence, cherry-pick (AID 493248)
Sequence of FAD-linked sulfhydryl oxidase ALR (P55789 whole entry): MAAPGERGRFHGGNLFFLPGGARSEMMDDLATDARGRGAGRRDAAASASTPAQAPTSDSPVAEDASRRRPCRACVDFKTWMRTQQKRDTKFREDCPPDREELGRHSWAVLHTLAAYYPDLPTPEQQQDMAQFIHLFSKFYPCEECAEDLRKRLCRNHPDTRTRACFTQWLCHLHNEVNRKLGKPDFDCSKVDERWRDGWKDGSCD

[17] = Shn3 3'UTR reporter inhibitors, dose response, cell-based, Clone20 osteoblasts, firefly luciferase, cherry-picked (AID 624132); format: functional;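 also: firefly luciferase luminescence from reporter carrying the Shn3 3'UTR in osteoblasts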
[18] = control 3'UTR Renilla luciferase suppression, dose response, counter-screen for Shn3 inhibitor project, cell-based, Clone20-Shn3RL, cherry-picked (AID 624133); format: functional
[19] = human group III sPLA2 inhibitors, dose response, biochemical, QFRET, IC50 (AID 743457);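 also: green fluorescence rise as the enzyme cleaves BODIPY PC-A2 in liposomes; potency for inhibition of the enzyme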

IC50 [10]: 40.8 µM (inactive) | IC50 [11]: 19.6 µM (active)
Compound: COc1ccc(Nc2cc(C)nc3ncnn23)cc1Cl

IC50 (Albumin): > 94.1 µM (inactive) | IC50 [19]: > 122 µM (inactive)
Compound: O=C(NNC(=O)c1ccc2ccccc2c1O)Nc1ccc(F)cc1

IC50 [8]: 9.8 µM (active) | IC50 [9]: 38.2 µM (active)
Compound: O=C(Nc1ccc(S(=O)(=O)Nc2nccs2)cc1)c1cccc(N2C(=O)c3ccccc3C2=O)c1

IC50 [10]: 12.5 µM (active) | IC50 [11]: 2.89 µM (active)
Compound: O=C(Nc1cc2c(cc1Cl)-c1ccc([N+](=O)[O-])cc1C2=NO)C(F)(F)F

Further lines, the compound ahead of its results:

Compound: Cc1ccccc1N1C(=O)Cc2ccccc2C1=O
IC50 (Caspase-3): 3.55 µM (active) | IC50 [1]: 23.8 µM (active) | IC50 [2]: 8.06 µM (active) | IC50 [3]: 45.7 µM (active) | IC50 [4]: > 100 µM (inactive) | IC50 [5]: 3.22 µM (active) | AC50 (Caspase-6): 27.4 µM (active)

Compound: Cc1c(C(=O)N2CC3(CC(c4cccc(NC(=O)CC(c5ccccc5)c5ccccc5)c4)=NO3)C[C@@H]2C(N)=O)cc([N+](=O)[O-])cc1[N+](=O)[O-] (some centres undefined)
EC50 [6]: 1.05 µM (active) | EC50 [7]: > 60 µM (not active) | IC50 [8]: 16.8 µM (active) | IC50 [9]: 38.4 µM (active)

Compound: Cc1ccccc1C(=O)NNC(=S)NC(=O)c1cccnc1
IC50 (Albumin): > 94.1 µM (inactive)

Compound: Cc1ccn2cc(-c3ccc(O)c(O)c3)nc2c1
EC50 [12]: 38 µM (active) | EC50 (cells [13]): > 350 µM (not active) | EC50 [14]: 6.88 µM (active) | IC50 (Large T antigen): 12.9 µM (active) | EC50 (cells [15]): 6.58 µM (active) | AC50 [16]: 0.558 µM (active) | AC50 [17]: 2.44 µM (active) | AC50 [18]: 13 µM (active) | IC50 (Albumin): > 94.1 µM (inactive)
